These results are taken from PMC12279208, “Targeted Penetrating Motif Engineering of BH3 Mimetic: Harnessing Non‐Canonical Amino Acids for Coinhibition of MCL‐1 and BCL‐xL in Acute Myeloid Leukemia” (Advanced Science, 2025).

Square brackets hold non-standard residues; d marks the D form. Peptide text beside a SMILES is read from it. Bpa = N[C@@H](Cc1ccc(C(=O)c2ccccc2)cc1)C(=O)O; Phe(4-Me) = Cc1ccc(C[C@H](N)C(=O)O)cc1; Met(O2) = CS(=O)(=O)CC[C@H](N)C(=O)O; Chg = N[C@H](C(=O)O)C1CCCCC1

For one data set, the target named is T1, MCL-1 (Homo sapiens, UniProt Q07820).
T1 construct: purchased BPS Biosciences 79506
Kind of data set: Cell-free TR-FRET inhibition of MCL-1 binding to its peptide ligand. The settings on record: 3 h at room temperature, 0.25-1000 nM, n = 4. On the procedure:
(§1) The inhibition of MCL-1 and BCL-xL binding to their respective ligands was quantified using time-resolved fluorescence resonance energy transfer (TR-FRET) assay kits (BPS Biosciences, Catalog Nos. 79506 and 50223). […] All samples and controls were run in quadruplicate, ensuring a final DMSO concentration below 0.1%. Selected hit compounds were tested at various concentrations: 0.25, 0.5, 1, 2, 4, 8, 16, 32, 64, 125, 500, and 1000 nM. The test assay components were prepared as follows: A 3× MCL TR-FRET assay buffer was diluted with two parts distilled water to create a 1× MCL TR-FRET assay buffer. The anti-His terbium-labeled donor and dye-labeled acceptor were diluted 200-fold in 1× MCL TR-FRET assay buffer. Each well received 5 μL of the anti-His terbium-labeled donor and dye-labeled acceptor mixture. In the negative control wells, 2 μL of inhibitor buffer and 1× MCL-1 TR-FRET assay buffer were added. For the positive control wells, 2 μL of inhibitor buffer and the MCL-1 peptide ligand were added. Subsequently, 2 μL of the diluted test inhibitor solution and the MCL-1 peptide ligand were added to the test inhibitor wells. Finally, 3 μL of diluted MCL-1 protein solution was added to each well, and the plate was incubated at room temperature for 3 hours.
(§2) TR-FRET Ratio=Emission at 665 nmEmission at 620 nm
(§3) The percent activity was calculated as follows:
(§4) Percent Activity=FRETsample-FRETnegFRETp-FRETneg×100%
(§5) where FRETsample is the sample FRET, FRETneg is the negative control FRET, and FRETp is the positive control FRET.
For orientation: In TR-FRET formats the signal depends on donor and acceptor labels being close together.

Another data set addresses T2, BCL-xL (Homo sapiens, UniProt Q07817).
T2 construct: His; purchased BPS Biosciences 50223
Kind of data set: Cell-free TR-FRET inhibition of BCL-xL binding to its peptide ligand. The settings on record: 3 h at room temperature, 0.25-1000 nM, n = 4. On the procedure: as §1, §2, §3, §4, §5

The next data set relates to THP-1 cells. Briefly: Apoptosis detection, Annexin V-FITC/PI flow cytometry. The settings on record: THP-1, Venetoclax 0.8 µM, 48 h. It counts as cell-based, human. On the procedure:
(§6) Cell apoptosis was measured following the manufacturer's instructions for the Annexin V-FITC kit (Elabscience, E-CK-A211-100). 1 × 10⁵ cells were co-cultured with varying concentrations of peptides or Venetoclax in 24-well plates for 48 hours. After incubation, the cells were collected by centrifugation, washed with PBS, and incubated with Annexin V-FITC and PI staining solution for 15 minutes under light-protected conditions. Apoptosis was then identified and analyzed using a flow cytometer (Beckman CytoFLEX, USA)[18].
Background: Flow cytometry measures light scatter and fluorescence of single cells or particles in a stream.

The next data set relates to U-937 cells. The data set is described as above. In kind it is cell-based, human. The settings on record: U-937, Venetoclax 8 µM, 48 h. On the procedure: as §6
Data set [1] relates to THP-1 luciferase-transplanted xenografts. Briefly: AML mouse model, THP-1 luciferase xenograft.
Method: To establish the AML mouse model, the animals were intravenously (IV) injected with luciferase-transfected THP-1 cells (THP-1 luciferase; 1 × 10⁶ cells/200 μL). The mice were randomly assigned to one of five experimental groups. […] Venetoclax was formulated for oral administration in a solution comprising 60% phosal 50 propylene glycol (PG), 30% polyethylene glycol (PEG) 400, and 10% ethanol, provided by MedChemExpress[30]. Before administration, both Venetoclax and BH3 peptide stock solutions were freshly diluted to working concentrations with sterile normal saline. The mice were anesthetized and administered 200 µL of a 15 mg/mL luciferase substrate, D-luciferin potassium salt (Beyotime Biotech, ST196-500mg), intraperitoneally. The progression of AML dissemination in mice was monitored until the day of euthanasia using an in vivo optical imaging system (Tanon ABL-X6; Tanon, Shanghai, China). The results were expressed as total flux (photons/s; radiance photons) ± standard deviation (SD) in both in vivo and ex vivo studies. The extent of the leukemia burden was determined by flow cytometry of peripheral blood human CD45+ cells. During the third and fourth weeks of the study, blood was collected from the orbital sinuses of mice in each group. […] Flow cytometry was employed to ascertain the expression of hCD45 in PBMCs. […] Following the completion of the designated treatment period, five mice from each group were randomly selected and euthanized by CO₂ asphyxiation. […] The bone marrow (from the tibia and femur), spleen, and liver were minced and made into single-cell suspensions in PBS, followed by red blood cell lysis. The cells were then stained with hCD45-PE antibody and analyzed by flow cytometry.
Liver, lung, kidney, spleen, and left femur tissues were formalin-fixed and paraffin-embedded. Bone tissue was decalcified with 10% EDTA decalcification solution prior to paraffin embedding. Paraffin blocks were then sectioned at 2-4 μm thickness and mounted on microscope slides. Tissue sections were deparaffinized and rehydrated using 100% xylene and ethanol solutions of decreasing concentrations.
A further data set relates to AML cells (THP-1). Briefly: CCK-8 cytotoxicity for selectivity, 24 h. The settings on record: Homo sapiens; THP-1, CCK-8, 24-hour incubation, n = 5. In kind it is cell-based. On the procedure:
(§7) The IC50 values of peptide drugs were determined in the experiments using the CCK-8 assay after a 24-hour incubation. The human acute leukemia cell line THP-1 was used as the leukemia cell model, while normal HSCs served as the control group. Higher SI values indicate greater selectivity of the peptide for leukemia cells over normal cells.

The subject of data set [2] is HSCs (CD34+ hematopoietic stem cells from cord blood). Briefly: CCK-8 cytotoxicity for selectivity, 24 h. In kind it is cell-based. The settings on record: Hematopoietic stem cell; human cord blood CD34+ HSCs, CCK-8, 24-hour incubation, n = 5; read-out: HSC IC50. On the procedure: as §7
Data set [3] deals with AML cells (THP-1) relative to HSCs. Briefly: Selectivity index calculation. In kind it is cell-based, human. The settings on record: n = 5. On the procedure:
The selectivity index (SI) was calculated to assess the specificity of peptide drugs toward leukemia cells relative to normal human HSCs. The SI is defined as the ratio of the IC50 value for HSCs to the IC50 value for leukemia cell lines, as shown in the following formula:
SI=IC50HSCsIC50leukemia cells
as §7

T2 sequence (Q07817 whole entry): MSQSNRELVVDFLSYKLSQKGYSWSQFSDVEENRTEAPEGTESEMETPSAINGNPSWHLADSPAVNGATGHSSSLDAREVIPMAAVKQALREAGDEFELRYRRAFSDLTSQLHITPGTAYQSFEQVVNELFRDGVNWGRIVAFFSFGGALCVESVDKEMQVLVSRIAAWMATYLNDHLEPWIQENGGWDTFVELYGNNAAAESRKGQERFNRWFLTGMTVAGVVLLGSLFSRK
T1 sequence (Q07820 whole entry): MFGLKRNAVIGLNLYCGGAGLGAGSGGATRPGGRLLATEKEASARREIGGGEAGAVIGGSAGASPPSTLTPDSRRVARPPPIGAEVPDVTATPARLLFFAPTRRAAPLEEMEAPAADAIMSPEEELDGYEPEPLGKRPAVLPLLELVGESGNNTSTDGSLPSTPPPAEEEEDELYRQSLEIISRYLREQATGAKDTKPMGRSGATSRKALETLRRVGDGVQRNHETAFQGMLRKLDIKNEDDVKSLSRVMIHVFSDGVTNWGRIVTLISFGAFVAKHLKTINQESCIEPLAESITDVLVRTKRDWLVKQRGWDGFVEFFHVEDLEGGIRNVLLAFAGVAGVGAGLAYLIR

In the case of `CC[C@H](C)[C@H](NC(=O)[C@H](CCCNC(=N)N)NC(=O)[C@H](CCCNC(=N)N)NC(=O)[C@H](CC(C)C)NC(=O)[C@H](CCC(=O)O)NC(=O)[C@H](CCC(N)=O)NC(=O)[C@H](C)NC(=O)[C@@H](NC(=O)[C@H](Cc1c[nH]c2ccccc12)NC(=O)[C@H](CCS(C)(=O)=O)NC(=O)[C@H](Cc1ccc(C(=O)c2ccccc2)cc1)NC(=O)[C@@H]1CCCN1)[C@@H](C)CC)C(=O)NCC(=O)N[C@@H](CC(=O)O)C(=O)N[C@@H](CCC(=O)O)C(=O)N[C@@H](Cc1ccc(C)cc1)C(=O)N[C@@H](CC(N)=O)C(=O)N[C@@H](C)C(=O)N[C@@H](Cc1ccc(O)cc1)C(=O)N[C@@H](Cc1ccc(O)cc1)C(=O)N[C@@H](C)C(N)=O` [G] (H-P[Bpa][Met(O2)]WIAQELRRIGDE[Phe(4-Me)]NAYYA-NH2), the figures for the IC50 at MCL-1 and at BCL-xL were 206 nM and 565 nM, respectively.
For `CC[C@H](C)[C@H](NC(=O)[C@H](CCCNC(=N)N)NC(=O)[C@H](CCCNC(=N)N)NC(=O)[C@H](CC(C)C)NC(=O)[C@H](CCC(=O)O)NC(=O)[C@H](CCC(N)=O)NC(=O)[C@H](C)NC(=O)[C@@H](NC(=O)[C@H](Cc1c[nH]c2ccccc12)NC(=O)[C@@H](NC(=O)[C@H](CCC(=O)O)NC(=O)[C@@H]1CCCN1)[C@@H](C)CC)C1CCCCC1)C(=O)NCC(=O)N[C@@H](CC(=O)O)C(=O)N[C@@H](CCC(=O)O)C(=O)N[C@@H](Cc1ccccc1)C(=O)N[C@@H](CC(N)=O)C(=O)N[C@@H](C)C(=O)N[C@@H](Cc1ccc(O)cc1)C(=O)N[C@@H](Cc1ccc(O)cc1)C(=O)N[C@@H](C)C(N)=O` [F] (H-PEIW[Chg]AQELRRIGDEFNAYYA-NH2) the same measures were 9.77 nM and 30.8 nM.
Consider `CC1(C)CCC(CN2CCN(c3ccc(C(=O)NS(=O)(=O)c4ccc(NCC5CCOCC5)c([N+](=O)[O-])c4)c(Oc4cnc5[nH]ccc5c4)c3)CC2)=C(c2ccc(Cl)cc2)C1` [Venetoclax], for which the figures for the Apoptosis in the data set with THP-1 cells and with U-937 cells were 47.3% and 49.3%, respectively. Further, the “Average body weight at study end” value in data set [1] (30 days, same regimens, n = 12, Vehicle ≈19 g) is listed as “≈ 20 g”. The “Bioluminescence (tumor burden) over 30 days” value in data set [1] (Venetoclax 25 mg kg−1 p.o., TAT-I or vMIP-II-TAT-I 1.5 µmol kg−1 i.v., Combination both, every 2 days, n = 5) is reported as “minimal therapeutic efficacy”. Further, the Median survival in data set [1] (Venetoclax 25 mg kg−1 p.o., TAT-I or vMIP-II-TAT-I 1.5 µmol kg−1 i.v., Combination both, every 2 days, n = 7, Vehicle 35 days) stood at 37 days. Further, the “hCD45+ cells in PBMCs” value in data set [1] (week 3, flow cytometry, n = 5, Vehicle ≈7%) was “≈ 5%”.
As to `CC[C@H](C)[C@H](NC(=O)[C@H](CCCNC(=N)N)NC(=O)[C@H](CCCNC(=N)N)NC(=O)[C@H](CC(C)C)NC(=O)[C@H](CCC(=O)O)NC(=O)[C@H](CCC(N)=O)NC(=O)[C@H](C)NC(=O)[C@@H](NC(=O)[C@H](Cc1c[nH]c2ccccc12)NC(=O)[C@@H](NC(=O)[C@H](CCC(=O)O)NC(=O)[C@@H]1CCCN1)[C@@H](C)CC)C1CCCCC1)C(=O)NCC(=O)N[C@@H](CC(=O)O)C(=O)N[C@@H](CCC(=O)O)C(=O)N[C@@H](Cc1ccc(C)cc1)C(=O)N[C@@H](CC(N)=O)C(=O)N[C@@H](C)C(=O)N[C@@H](Cc1ccc(O)cc1)C(=O)N[C@@H](Cc1ccc(O)cc1)C(=O)N[C@@H](C)C(N)=O` [D] (H-PEIW[Chg]AQELRRIGDE[Phe(4-Me)]NAYYA-NH2), the 50% inhibitory concentration (IC50) (commonly the concentration needed to halve the response being measured) at MCL-1 was 25.4 nM; on BCL-xL, 58.5 nM.
In the case of `CC[C@H](C)[C@H](NC(=O)[C@H](CCCNC(=N)N)NC(=O)[C@H](CCCNC(=N)N)NC(=O)[C@H](CC(C)C)NC(=O)[C@H](CCC(=O)O)NC(=O)[C@H](CCC(N)=O)NC(=O)[C@H](C)NC(=O)[C@@H](NC(=O)[C@H](Cc1c[nH]c2ccccc12)NC(=O)[C@H](CCS(C)(=O)=O)NC(=O)[C@H](CCC(=O)O)NC(=O)[C@@H]1CCCN1)C1CCCCC1)C(=O)NCC(=O)N[C@@H](CC(=O)O)C(=O)N[C@@H](CCC(=O)O)C(=O)N[C@@H](Cc1ccc(C)cc1)C(=O)N[C@@H](CC(N)=O)C(=O)N[C@@H](C)C(=O)N[C@@H](Cc1ccc(O)cc1)C(=O)N[C@@H](Cc1ccc(O)cc1)C(=O)N[C@@H](C)C(N)=O` [C] (H-PE[Met(O2)]W[Chg]AQELRRIGDE[Phe(4-Me)]NAYYA-NH2), the IC50 stood at 48.9 nM at MCL-1 and 278 nM on BCL-xL.
`Cc1cc2c(C(C)C)c(O)c(O)c(C=O)c2c(O)c1-c1c(C)cc2c(C(C)C)c(O)c(O)c(C=O)c2c1O` [AT-101, (R)-(-)-Gossypol]: the values for the IC50 (in the data set on AML cells (THP-1); in data set [2]) were 18.9 µM and 67.7 µM, respectively. Moreover, the “Selectivity index (SI) combined with Venetoclax” value in data set [3] (IC50 HSCs / IC50 THP-1, in combination with Venetoclax (concentration not given)) was 3.85. Besides, in data set [3] (IC50 HSCs / IC50 leukemia cells (THP-1), single agent), the “Selectivity index (SI)” value is recorded as 3.56.
`CC[C@H](C)[C@H](NC(=O)[C@H](CCCNC(=N)N)NC(=O)[C@H](CCCNC(=N)N)NC(=O)[C@H](CC(C)C)NC(=O)[C@H](CCC(=O)O)NC(=O)[C@H](CCC(N)=O)NC(=O)[C@H](C)NC(=O)[C@@H](NC(=O)[C@H](Cc1c[nH]c2ccccc12)NC(=O)[C@H](CCS(C)(=O)=O)NC(=O)[C@H](Cc1ccc(C(=O)c2ccccc2)cc1)NC(=O)[C@@H]1CCCN1)C1CCCCC1)C(=O)NCC(=O)N[C@@H](CC(=O)O)C(=O)N[C@@H](CCC(=O)O)C(=O)N[C@@H](Cc1ccc(C)cc1)C(=O)N[C@@H](CC(N)=O)C(=O)N[C@@H](C)C(=O)N[C@@H](Cc1ccc(O)cc1)C(=O)N[C@@H](Cc1ccc(O)cc1)C(=O)N[C@@H](C)C(N)=O` [B] (H-P[Bpa][Met(O2)]W[Chg]AQELRRIGDE[Phe(4-Me)]NAYYA-NH2): the IC50 turned out to be 122 nM on MCL-1 and 412 nM at BCL-xL.
